From patent US10010538B2, “Use of anthelmintic agents against Dirofilaria immitis” (Intervet Inc., priority 2014, dated 2018)

Columns and labels:
L4 larvae of D. immitis = assay: microbe, parasite or virus in culture; assay type: cell-based; conditions: Dirofilaria immitis, 72 h, read-out: MIC100, lowest dose that results in complete loss of motility
D. immitis microfilariae = assay: Activity against D. immitis microfilariae (viability after 3 days incubation); assay type: cell-based; conditions: Dirofilaria immitis, in Canis lupus familiaris, 72 h, read-out: Microfilaricidal activity, half maximal effective concentration (EC50)

O=C(CO[C@H]1CC[C@H](Nc2ccc([N+](=O)[O-])c(C(F)(F)F)c2)CC1)N1CCC(Nc2ccc(C(F)(F)F)cc2)CC1 [Example 267]
MIC (L4 larvae of D. immitis): < 10 µM
EC50 (D. immitis microfilariae): < 10 µM

O=C(CO[C@H]1CC[C@H](Nc2ccc([N+](=O)[O-])c(C(F)(F)F)c2)CC1)N1CCC(Oc2ccc(OC(F)(F)F)cc2)CC1 [Example 266]
MIC (L4 larvae of D. immitis): < 10 µM
EC50 (D. immitis microfilariae): < 5 µM
